From ChEMBL document CHEMBL4049438, “Discovery and Optimization of Isoquinoline Ethyl Ureas as Antibacterial Agents” (J Med Chem, 2017)
Converted amounts (≈) assume the structure as drawn. The source made the active and inactive calls. The rule behind the calls is not given here.

Legend:
[1] = Dissociation constant, pKa of the compound by pH metric assay; type: physicochemical
[2] = tested on: Staphylococcus aureus; experiment: Antibacterial activity against Staphylococcus aureus ATCC 29213 by broth microdilution method; type: functional
[3] = Octanol-phosphate buffer partition coefficient, logD of compound at pH 7.4 by LC/UV analysis; type: physicochemical
[4] = target: hERG (KCNH2) (Homo sapiens, UniProt Q12809); experiment: Inhibition of human ERG expressed in CHO cells at 10 uM after 3 mins at -80 mV holding potential by Qpatch assay; type: cell-based; conditions: CHO cells expressing human ERG
hERG (KCNH2), sequence (Q12809 whole entry): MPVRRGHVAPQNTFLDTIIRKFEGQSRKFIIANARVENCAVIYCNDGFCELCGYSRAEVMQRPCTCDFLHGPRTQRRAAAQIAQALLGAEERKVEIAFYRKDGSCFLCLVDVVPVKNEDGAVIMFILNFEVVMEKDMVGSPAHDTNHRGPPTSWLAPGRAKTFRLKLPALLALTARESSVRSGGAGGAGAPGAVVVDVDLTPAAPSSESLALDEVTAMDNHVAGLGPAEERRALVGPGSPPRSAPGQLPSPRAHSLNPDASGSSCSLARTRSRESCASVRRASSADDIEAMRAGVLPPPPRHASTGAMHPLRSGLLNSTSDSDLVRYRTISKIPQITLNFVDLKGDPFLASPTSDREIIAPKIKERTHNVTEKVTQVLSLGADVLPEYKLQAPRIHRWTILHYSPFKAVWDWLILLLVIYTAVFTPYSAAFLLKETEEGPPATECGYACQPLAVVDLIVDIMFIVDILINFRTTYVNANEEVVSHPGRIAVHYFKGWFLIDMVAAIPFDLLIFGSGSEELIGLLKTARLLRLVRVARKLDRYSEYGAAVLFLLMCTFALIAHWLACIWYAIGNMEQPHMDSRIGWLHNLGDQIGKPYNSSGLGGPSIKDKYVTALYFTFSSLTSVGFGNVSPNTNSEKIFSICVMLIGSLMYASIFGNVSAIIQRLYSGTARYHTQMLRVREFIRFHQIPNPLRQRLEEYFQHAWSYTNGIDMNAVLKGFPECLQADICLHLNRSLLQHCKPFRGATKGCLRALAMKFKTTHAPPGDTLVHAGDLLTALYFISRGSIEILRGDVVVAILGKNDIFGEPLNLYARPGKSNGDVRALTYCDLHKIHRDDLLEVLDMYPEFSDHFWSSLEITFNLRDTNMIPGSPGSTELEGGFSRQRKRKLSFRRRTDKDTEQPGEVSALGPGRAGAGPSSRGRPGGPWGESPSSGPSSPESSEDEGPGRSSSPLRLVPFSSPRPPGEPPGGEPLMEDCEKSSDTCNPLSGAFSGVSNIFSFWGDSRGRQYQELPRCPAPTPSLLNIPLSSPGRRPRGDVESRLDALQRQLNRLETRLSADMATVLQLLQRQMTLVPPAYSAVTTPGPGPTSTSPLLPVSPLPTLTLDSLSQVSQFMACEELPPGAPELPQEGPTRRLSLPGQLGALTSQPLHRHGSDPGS

[5] = Inhibition of Staphylococcus aureus topoisomerase 4 subunit ParC/ParE relaxation expressed in Escherichia coli BL21 (DE3) using supercoiled pBR322 DNA as substrate after 1 hr by agarose gel electrophoresis
[6] = target: DNA gyrase (Staphylococcus aureus, UniProt P0A0K8+P20831)
Description: Inhibition of Staphylococcus aureus N-terminal His6-tagged DNA gyrase subunit GyrA/GyrB supercoiling activity expressed in Escherichia coli BL21 (DE3) using relaxed pBR322 DNA as substrate after 1 hr by agarose gel electrophoresis

[7] = tested on: Escherichia coli; experiment: Inhibition of Escherichia coli N-terminal His6-tagged DNA gyrase subunit GyrA/GyrB ATPase activity at 100 to 500 uM after 40 mins by spectrophotometric analysis
[8] = Inhibition of Escherichia coli N-terminal His6-tagged DNA gyrase subunit GyrA/GyrB ATPase activity expressed in Escherichia coli BL21 (DE3) after 40 mins by spectrophotometric analysis
[9] = Inhibition of Escherichia coli DNA topoisomerase 4 subunit ParC/ParE relaxation expressed in Escherichia coli BL21 (DE3) using supercoiled pBR322 DNA as substrate after 1 hr by agarose gel electrophoresis
[10] = Inhibition of Escherichia coli N-terminal His6-tagged DNA gyrase subunit GyrA/GyrB supercoiling activity expressed in Escherichia coli BL21 (DE3) using relaxed pBR322 DNA as substrate after 1 hr by agarose gel electrophoresis
[11] = tested on: Escherichia coli; experiment: Antibacterial activity against TolC deficient Escherichia coli by broth microdilution method; type: functional

pKa [1] | MIC [2] [mg/L] | logD [3] | IC50 [5] [µM] | IC50 [6] [µM] | inhibition [7] | IC50 [8] [µM] | IC50 [9] [µM] | IC50 [10] [µM] | MIC [11] [mg/L] | Structure (SMILES) | inhibition at 0.05 h, 10 µM [4] [%]
– | – | – | – | – | Active | 20 | – | – | – | CCNC(=O)Nc1nc2c(s1)NC(=O)CC2 | –
– | – | – | – | – | Active | 200 | – | – | – | CCNC(=O)Nc1nc2c(s1)CNCC2 | –
8.1 | 4 (≈ 8.32 µM) | 1.5 | 0.125 | 0.008 | – | – | – | – | – | CCNC(=O)Nc1cc2c(-c3ccnc(C)c3)ccc(COC(=O)N[C@@H]3CCNC[C@@H]3F)c2cn1 (relative stereo) | 8
– | 0.5 (≈ 1.19 µM) | 2.6 | 2 | 0.008 | – | – | – | – | – | CCNC(=O)Nc1cc2c(-c3ccnc(C)c3)ccc(CNC(=O)CCOC)c2cn1 | 0
– | – | – | – | – | Active | > 200 | – | – | – | CCNC(=O)Nc1ccccn1 | –
– | 0.5 (≈ 1.13 µM) | – | 0.125 | 0.008 | – | – | 0.5 | – | – | CCNC(=O)Nc1cc2c(-c3ccnc(C)c3)ccc(Nc3cccc(C(=O)O)c3)c2cn1 | –
9 | > 32 | 0.2 | 2 | 0.03 | – | – | – | – | – | CCNC(=O)Nc1cc2c(-c3ccncc3)ccc(CNC(=O)OCCNC)c2cn1 | 3
– | > 32 | – | > 256 | 0.03 | – | < 0.2 | > 256 | 0.125 | > 32 | CCNC(=O)Nc1cc2c(-c3ccc(C#N)cc3)ccc(C)c2cn1 | –
– | – | – | – | – | Active | > 200 | – | – | – | CCNC(=O)Nc1ncc2ccccc2n1 | –
– | > 32 | – | > 256 | 0.5 | – | < 0.2 | > 256 | 2 | > 32 | CCNC(=O)Nc1cc2c(-c3cncnc3)ccc(C)c2cn1 | –
– | > 16 | – | > 256 | 0.125 | – | – | > 256 | 2 | – | CCNC(=O)Nc1cc2c(-c3ccncc3)ccc(-c3cccnc3)c2cn1 | –
– | – | – | – | – | Active | 70 | – | – | – | CCNC(=O)Nc1ccc2ccccc2n1 | –
– | 0.25 (≈ 0.649 µM) | – | 2 | 0.03 | – | – | 8 | 0.125 | – | CCNC(=O)Nc1cc2c(-c3ccncc3)ccc(Oc3cccnc3)c2cn1 | –
– | – | – | – | – | Active | 20 | – | – | – | CCNC(=O)Nc1nc2ccccc2s1 | –
– | 4 (≈ 13 µM) | – | 32 | 0.5 | – | < 0.2 | 32 | – | 4 (≈ 13 µM) | CCNC(=O)Nc1cc2c(-c3ccncn3)ccc(C)c2cn1 | –
– | 2 (≈ 4.88 µM) | 2 | 0.5 | < 0.004 | – | – | – | – | – | CCNC(=O)Nc1cc2c(-c3ccncc3)ccc(CNC(=O)OCCO)c2cn1 | 0
– | – | – | – | – | Active | 20 | – | – | – | CCNC(=O)Nc1cnc2ccccc2n1 | –
6.3 | 4 | 2.3 | 0.5 | < 0.004 | – | – | – | – | – | CCNC(=O)Nc1cc2c(-c3ccncc3)ccc(CNC(=O)OCCN3CCOCC3)c2cn1.Cl | 0

The remaining lines, values behind:

Structure (SMILES) | pKa [1] | MIC [2] [mg/L] | logD [3] | IC50 [5] [µM] | IC50 [6] [µM] | inhibition [7] | IC50 [8] [µM] | IC50 [9] [µM] | IC50 [10] [µM] | MIC [11] [mg/L] | inhibition at 0.05 h, 10 µM [4] [%]
CCNC(=O)Nc1cc2c(-c3ccncc3)ccc(CNC(=O)OCCNCC(C)(C)C)c2cn1 | 8.7 | 4 (≈ 8.36 µM) | 2.6 | 8 | 0.008 | – | – | – | – | – | 25
CCNC(=O)Nc1nc2c(s1)CCCC2 | – | – | – | – | – | Active | 200 | – | – | – | –
CCNC(=O)Nc1nc2ccncc2s1 | – | – | – | – | – | Active | 20 | – | – | – | –
CCNC(=O)Nc1cc2c(-c3ccnc(C)c3)ccc(Cc3cccnc3)c2cn1.Cl | – | 0.5 | – | 2 | 0.03 | – | – | 8 | 0.125 | – | –
CCNC(=O)Nc1cc2c(-c3ccncc3)ccc(Nc3cccnc3)c2cn1 | – | 0.06 (≈ 0.156 µM) | – | 0.125 | 0.008 | – | – | 0.5 | 0.03 | – | –
CCNC(=O)Nc1cc2c(-c3ccnc(C)c3)ccc(CNC(=O)C3CC3)c2cn1 | – | 0.06 (≈ 0.149 µM) | 3.4 | 2 | < 0.004 | – | – | – | – | – | 75
CCNC(=O)Nc1cc2cccc(C)c2cn1 | – | 32 (≈ 140 µM) | – | > 256 | 8 | – | 1 | 128 | 32 | > 32 | –
CCNC(=O)Nc1cc2c(-c3ccnc(C)c3)ccc(CNC(=O)OCCO)c2cn1 | – | 1 (≈ 2.36 µM) | 2.5 | 8 | 0.03 | – | – | – | – | – | 19
CCNC(=O)Nc1cc2c(-c3cccnc3)ccc(C)c2cn1 | – | 2 (≈ 6.53 µM) | – | > 256 | 0.125 | – | < 0.2 | > 256 | 2 | > 32 | –
CCNC(=O)Nc1nccc2ccccc12 | – | – | – | – | – | Active | > 200 | – | – | – | –
CCNC(=O)Nc1cc2c(-c3ccncc3)ccc(CNC(=O)OC)c2cn1 | – | 0.125 (≈ 0.329 µM) | 2.7 | 0.5 | < 0.004 | – | – | – | – | – | 41
CCNC(=O)Nc1nccs1 | – | – | – | – | – | Active | > 200 | – | – | – | –
CCNC(=O)Nc1cc2c(-c3ccnc(C)c3)ccc(COC(=O)NC3CCNCC3)c2cn1 | 9.8 | 16 (≈ 34.6 µM) | 0.8 | 0.5 | 0.008 | – | – | – | – | – | 2
CCNC(=O)Nc1cc2c(-c3ccnc(C)c3)ccc(COC(=O)N3CCNCC3)c2cn1 | 8.1 | 2 (≈ 4.46 µM) | 1.9 | 0.5 | 0.008 | – | – | – | – | – | 0
CCNC(=O)Nc1cc2c(-c3ccncc3)ccc(CNC(=O)OC(C)C)c2cn1 | – | 0.25 (≈ 0.614 µM) | 3.7 | 0.5 | < 0.004 | – | – | – | – | – | 63
CCNC(=O)Nc1cc2c(-c3ccnc(C)c3)ccc(COC(=O)N3CCN(CC4CC4)CC3)c2cn1.Cl | 7.4 | 1 | 3.6 | 0.5 | 0.008 | – | – | – | – | – | 74
CCNC(=O)Nc1cc2c(-c3ccnc(C)c3)ccc(CNC(=O)OC3CCNCC3(F)F)c2cn1 (stereo unspecified) | 6.5 | 0.5 (≈ 1 µM) | 3.1 | 2 | 0.008 | – | – | – | – | – | 8
CCNC(=O)Nc1cc2c(-c3cnn(C)c3)ccc(C)c2cn1.Cl | – | 4 | – | > 256 | 0.125 | – | < 0.2 | 32 | 8 | 16 | –
CCNC(=O)Nc1cc2c(-c3ccnc(C)c3)ccc(C)c2cn1 | – | 0.5 (≈ 1.56 µM) | – | 8 | 0.03 | – | < 0.2 | 8 | 0.125 | 4 (≈ 12.5 µM) | –
CCNC(=O)Nc1cc2c(-c3cccnc3)cccc2cn1 | – | > 32 | – | > 256 | 8 | – | 1 | 128 | 32 | > 32 | –
CCNC(=O)Nc1cc2ccccc2cn1 | – | > 32 | – | > 256 | 128 | Active | 20 | > 256 | – | > 32 | –
